# Laboratory results reported in ChEMBL document CHEMBL2311354, “C-3 halo and 3-methyl substituted 5'-nor-3-deazaaristeromycins: synthesis and antiviral properties” (Bioorg Med Chem, 2013).
# Active and inactive are the calls of the source. The calls are words filed in the database; no cut-off is given here.
# How the values were obtained:
# [1] = Selectivity index, ratio of CC50 for MDCK cells to EC50 for influenza B virus; assay type: toxicity, cell-based; conditions: dog, read-out: Ratio CC50/EC50
# [2] = tested on: Cowpox virus; assay: Antiviral activity against Cowpox virus infected in human HFF cells assessed as reduction of viral replication; assay type: functional, organism-based
# [3] = tested on: Human alphaherpesvirus 3; assay: Antiviral activity against Varicella-zoster virus infected in human HFF cells assessed as reduction of viral replication; assay type: functional, organism-based; conditions: for EC50: Human alphaherpesvirus 3, HFF
# [4] = tested on: Sindbis virus; assay: Antiviral activity against Sindbis virus infected in african green monkey Vero cells assessed as reduction of viral replication; assay type: functional, organism-based
# [5] = tested on: Human alphaherpesvirus 1; assay: Antiviral activity against HSV1 infected in human HEL cells assessed as reduction of viral replication; assay type: functional, organism-based
# [6] = tested on: Vaccinia virus; assay: Antiviral activity against Vaccinia virus infected in human HEL cells assessed as reduction of viral replication; assay type: functional, organism-based; conditions: Orthopoxvirus vaccinia
# [7] = tested on: Measles morbillivirus; assay: Antiviral activity against Measles virus infected in african green monkey CV1 cells assessed as reduction of viral replication; assay type: functional, organism-based; conditions: CV-1
# [8] = tested on: Yellow fever virus; assay: Antiviral activity against Yellow fever virus infected in african green monkey Vero cells assessed as reduction of viral replication; assay type: functional, organism-based
# [9] = Selectivity index, ratio of CC50 for human HepG2.215 cells to EC50 for Hepatitis B virus; assay type: toxicity; conditions: read-out: Ratio CC50/EC50
# [10] = tested on: West Nile virus; assay: Antiviral activity against West Nile virus infected in african green monkey Vero cells assessed as reduction of viral replication; assay type: functional, organism-based
# [11] = Selectivity index, ratio of CC50 for MDCK cells to EC50 for influenza A virus H5N1; assay type: toxicity, cell-based; conditions: dog, read-out: Ratio CC50/EC50
# [12] = tested on: Human immunodeficiency virus 1; assay: Antiviral activity against HIV1 infected in human CEM cells assessed as reduction of viral replication; assay type: functional, organism-based; conditions: CCRF-CEM
# [13] = tested on: Dengue virus; assay: Antiviral activity against Dengue virus infected in african green monkey Vero cells assessed as reduction of viral replication; assay type: functional, organism-based
# [14] = Selectivity index, ratio of CC50 for african green monkey CV1 cells to EC50 for Measles virus; assay type: toxicity, cell-based, CV-1; conditions: read-out: Ratio CC50/EC50
# [15] = Selectivity index, ratio of CC50 for human HFF cells to EC50 for human cytomegalovirus; assay type: toxicity, cell-based; conditions: read-out: Ratio CC50/EC50
# [16] = tested on: unidentified adenovirus; assay: Antiviral activity against Adenovirus infected in human A549 cells assessed as reduction of viral replication; assay type: functional, organism-based
# [17] = tested on: Vesicular stomatitis virus; assay: Antiviral activity against Vesicular stomatitis virus infected in human HEL cells assessed as reduction of viral replication; assay type: functional, organism-based
# [18] = tested on: Human respirovirus 3; assay: Antiviral activity against Human parainfluenzae virus 3 infected in african green monkey Vero cells assessed as reduction of viral replication; assay type: functional, organism-based; conditions: for EC50: Human respirovirus 3, Vero
# [19] = tested on: Punta Toro virus; assay: Antiviral activity against Punta Toro virus infected in african green monkey Vero cells assessed as reduction of viral replication; assay type: functional, organism-based
# [20] = tested on: Hepatitis B virus; assay: Antiviral activity against Hepatitis B virus infected in human HepG 2.215 cells assessed as reduction of viral replication; assay type: functional, organism-based; conditions: for EC50: HepG2.2.15
# [21] = tested on: Feline coronavirus; assay: Antiviral activity against Feline coronavirus infected in cat CRFK cells assessed as reduction of viral replication; assay type: functional, organism-based
# [22] = Cytotoxicity against african green monkey Vero cells assessed as concentration required to cause microscopically alternation of cellular morphology; assay type: cell-based; conditions: chlorocebus sabaeus
# [23] = tested on: Influenza A virus; assay: Antiviral activity against influenza A virus H5N1 infected in MDCK cells assessed as reduction of viral replication; assay type: functional, organism-based
# [24] = tested on: Human gammaherpesvirus 4; assay: Antiviral activity against Epstein-Barr virus infected in human HFF cells assessed as reduction of viral replication; assay type: functional, organism-based
# [25] = Cytotoxicity against african green monkey CV1 cells assessed as reduction of cell viability; assay type: cell-based, CV-1; conditions: chlorocebus aethiops
# [26] = Cytotoxicity against human HepG2.215 cells assessed as reduction of cell viability; assay type: cell-based, HepG2 2.2.15
# [27] = tested on: Tacaribe virus; assay: Antiviral activity against Tacaribe virus infected in african green monkey Vero 76 cells assessed as reduction of viral replication; assay type: functional, organism-based; conditions: Mammarenavirus tacaribeense
# [28] = tested on: Coxsackievirus B4; assay: Antiviral activity against Human coxsackievirus B4 infected in african green monkey Vero cells assessed as reduction of viral replication; assay type: functional, organism-based
# [29] = Cytotoxicity against human HFF cells assessed as reduction of cell viability; assay type: cell-based
# [30] = tested on: Enterovirus; assay: Antiviral activity against Rhinovirus infected in human HeLa Ohio1 cells assessed as reduction of viral replication; assay type: functional, organism-based
# [31] = tested on: Rift Valley fever virus; assay: Antiviral activity against Rift Valley fever virus infected in african green monkey Vero 76 cells assessed as reduction of viral replication; assay type: functional, organism-based
# [32] = Cytotoxicity against human HEL cells assessed as concentration required to cause microscopically alternation of cellular morphology; assay type: cell-based
# [33] = Cytotoxicity against MDCK cells assessed as reduction of cell viability; assay type: cell-based, Canis lupus familiaris; conditions: dog
# [34] = tested on: Influenza B virus; assay: Antiviral activity against influenza B virus infected in MDCK cells assessed as reduction of viral replication; assay type: functional, organism-based
# [35] = tested on: Respiratory syncytial virus; assay: Antiviral activity against Respiratory syncytial virus infected in monkey MA104 cells assessed as reduction of viral replication; assay type: functional, organism-based
# [36] = tested on: Human immunodeficiency virus 2; assay: Antiviral activity against HIV2 infected in human CEM cells assessed as reduction of viral replication; assay type: functional, organism-based; conditions: CCRF-CEM
# [37] = Selectivity index, ratio of CC50 for human HFF cells to EC50 for Varicella-zoster virus; assay type: toxicity, cell-based; conditions: read-out: Ratio CC50/EC50
# [38] = tested on: Mammalian orthoreovirus 1; assay: Antiviral activity against Reovirus 1 infected in african green monkey Vero cells assessed as reduction of viral replication; assay type: functional, organism-based; conditions: for EC50: Mammalian orthoreovirus 1, Vero
# [39] = tested on: Cytomegalovirus; assay: Antiviral activity against human cytomegalovirus infected in human HFF cells assessed as reduction of viral replication; assay type: functional, organism-based; conditions: for EC50: Human betaherpesvirus 5, HFF
# [40] = tested on: Influenza A virus; assay: Antiviral activity against influenza A H3N2 infected in MDCK cells assessed as reduction of viral replication; assay type: functional, organism-based
# [41] = tested on: Human alphaherpesvirus 2; assay: Antiviral activity against HSV2 infected in human HEL cells assessed as reduction of viral replication; assay type: functional, organism-based
# [42] = tested on: Influenza A virus; assay: Antiviral activity against influenza A H1N1 infected in MDCK cells assessed as reduction of viral replication; assay type: functional, organism-based
structure (smiles),measurement,setting,value
Nc1ncc(I)c2c1ncn2[C@@H]1C[C@H](O)[C@@H](O)[C@H]1O,selectivity ratio,[1],> 111
same,Activity,[2],inactive
same,EC50,[3],> 60 µM
same,Activity,[4],inactive
same,Activity,[5],inactive
same,EC50,[6],4 µM
same,EC50,[7],2900 nM
same,Activity,[8],inactive
same,selectivity ratio,[9],> 370
same,Activity,[10],inactive
same,selectivity ratio,[11],> 6
same,Activity,[12],inactive
same,Activity,[13],inactive
same,selectivity ratio,[14],23
same,selectivity ratio,[15],182
same,Activity,[16],inactive
same,EC50,[17],4 µM
same,EC50,[18],20 µM
same,EC50,[19],> 20 µM
same,EC50,[20],808 nM
same,Activity,[21],inactive
same,MCC,[22],100 µM
same,EC50,[23],44 µM
same,Activity,[24],inactive
same,CC50,[25],67 µM
same,CC50,[26],> 300 µM
same,Activity,[27],inactive
same,Activity,[28],inactive
same,CC50,[29],201 µM
same,Activity,[30],inactive
same,Activity,[31],inactive
same,MCC,[32],> 100 µM
same,CC50,[33],> 242 µM
same,EC50,[34],2200 nM
same,Activity,[35],inactive
same,Activity,[36],inactive
same,selectivity ratio,[37],< 3.4
same,EC50,[38],4000 nM
same,EC50,[39],1200 nM
same,Activity,[40],inactive
same,Activity,[41],inactive
same,Activity,[42],inactive
Nc1ncc(Cl)c2c1ncn2[C@@H]1C[C@H](O)[C@@H](O)[C@H]1O,selectivity ratio,[1],> 500
same,Activity,[2],inactive
same,EC50,[3],> 300 µM
same,Activity,[4],inactive
same,Activity,[5],inactive
same,EC50,[6],120 µM
same,EC50,[7],180 nM
same,Activity,[8],inactive
same,Activity,[10],inactive
same,selectivity ratio,[11],> 77
same,Activity,[12],inactive
same,Activity,[13],inactive
same,selectivity ratio,[14],> 1730
same,Activity,[16],inactive
same,EC50,[17],8 µM
same,EC50,[18],1.6 µM
same,EC50,[19],24 µM
same,EC50,[20],> 10000 nM
same,Activity,[21],inactive
same,MCC,[22],> 200 µM
same,EC50,[23],4 µM
same,Activity,[24],inactive
same,CC50,[25],311 µM
same,CC50,[26],> 300 µM
same,Activity,[27],inactive
same,Activity,[28],inactive
same,CC50,[29],> 300 µM
same,Activity,[30],inactive
same,Activity,[31],inactive
same,MCC,[32],> 100 µM
same,CC50,[33],> 311 µM
same,EC50,[34],620 nM
same,Activity,[35],inactive
same,Activity,[36],inactive
same,EC50,[38],1600 nM
same,Activity,[40],inactive
same,Activity,[41],inactive
same,Activity,[42],inactive
Nc1ncc(Br)c2c1ncn2[C@@H]1C[C@H](O)[C@@H](O)[C@H]1O,selectivity ratio,[1],> 100
same,Activity,[2],inactive
same,EC50,[3],0.11 µM
same,Activity,[4],inactive
same,Activity,[5],inactive
same,EC50,[6],24 µM
same,EC50,[7],> 273000 nM
same,Activity,[8],inactive
same,selectivity ratio,[9],> 454
same,Activity,[10],inactive
same,Activity,[12],inactive
same,Activity,[13],inactive
same,selectivity ratio,[15],> 175
same,Activity,[16],inactive
same,EC50,[17],> 200 µM
same,EC50,[18],8 µM
same,EC50,[19],> 8 µM
same,EC50,[20],22 nM
same,Activity,[21],inactive
same,MCC,[22],> 8 µM
same,Activity,[24],inactive
same,CC50,[25],> 273 µM
same,CC50,[26],> 10 µM
same,Activity,[27],inactive
same,Activity,[28],inactive
same,CC50,[29],> 300 µM
same,Activity,[30],inactive
same,Activity,[31],inactive
same,MCC,[32],> 200 µM
same,CC50,[33],> 273 µM
same,EC50,[34],27000 nM
same,Activity,[35],inactive
same,Activity,[36],inactive
same,selectivity ratio,[37],> 2630
same,EC50,[38],1600 nM
same,EC50,[39],1700 nM
same,Activity,[40],inactive
same,Activity,[41],inactive
same,Activity,[42],inactive
Cc1cnc(N)c2ncn([C@@H]3C[C@H](O)[C@@H](O)[C@H]3O)c12,Activity,[2],inactive
same,Activity,[3],inactive
same,Activity,[4],inactive
same,Activity,[5],inactive
same,Activity,[6],inactive
same,Activity,[7],inactive
same,Activity,[8],inactive
same,Activity,[10],inactive
same,Activity,[12],inactive
same,Activity,[13],inactive
same,Activity,[16],inactive
same,Activity,[17],inactive
same,Activity,[18],inactive
same,Activity,[19],inactive
same,Activity,[20],inactive
same,Activity,[21],inactive
same,Activity,[23],inactive
same,Activity,[24],inactive
same,Activity,[27],inactive
same,Activity,[28],inactive
same,Activity,[30],inactive
same,Activity,[31],inactive
same,Activity,[34],inactive
same,Activity,[35],inactive
same,Activity,[36],inactive
same,Activity,[38],inactive
same,Activity,[39],inactive
same,Activity,[40],inactive
same,Activity,[41],inactive
same,Activity,[42],inactive
